Measured values published in BindingDB's records for doi:10.1021/acs.jmedchem.8b00705 (Zhejiang University, 2018).

Assay: Inhibition of alpha-crystallin B R120G mutant (unknown origin)-induced intracellular protein aggregation expressed in human HeLa cells or HLE-B3 cells incubated for 6 to 8 hrs by fluorescence microscopy relative to untreated control

SMILES	EC50 [nM]
C[C@H](CCCC(C)(C)O)[C@H]1CC[C@@]2(C)C3=CC[C@H]4C(C)(C)[C@@H](O)CC[C@]4(C)C3=CC[C@]12C	64
C[C@H](CCCC(C)(C)O)[C@H]1CC[C@@]2(C)C3=C(CC[C@]12C)[C@@]1(C)CC[C@H](O)C(C)(C)[C@@H]1CC3	57
C[C@H](CCCC(C)(C)O)[C@H]1CC[C@@]2(C)C3=C(CC[C@]12C)[C@@]1(C)C[C@@H](F)[C@@H](O)C(C)(C)[C@@H]1CC3	26
C[C@H](CCCC(C)(C)O)[C@H]1CC[C@@]2(C)C3=C(CC[C@]12C)[C@@]1(C)C[C@@H](F)[C@H](O)C(C)(C)[C@@H]1CC3	18
C[C@H](CCCC(C)(C)O)[C@H]1CC[C@@]2(C)C3=C(CC[C@]12C)[C@@]1(C)CCC(=O)C(C)(C)[C@@H]1CC3	106
C[C@H](CCCC(C)(C)O)[C@H]1CC[C@H]2[C@@H]3CC=C4C[C@@H](O)CC[C@]4(C)[C@H]3CC[C@]12C [(1S,2R,5S,10S,11S,14R,15R)-14-[(2R)-6-hydroxy-6-methylheptan-2-yl]-2,15-dimethyltetracyclo[8.7.0.0^{2,7}.0^{11,15}]heptadec-7-en-5-ol]	320
CC(C)=CCC[C@@H](C)[C@H]1CC[C@@]2(C)C3=C(CC[C@]12C)[C@@]1(C)CC[C@H](O)C(C)(C)[C@@H]1CC3 [LANOSTEROL]	1420
